These results are taken from patent US10383880B2 (Reset Therapeutics, Inc., priority 2012, dated 2019).

As usually defined, the EC50 is the concentration that produces a half-maximal response.

In this assay the test system is Per2-dLuc U2OS reporter cells. Put plainly: Per2 assay for evaluating the potency of test compounds (high-throughput circadian assay). As to conditions: Homo sapiens, U2OS, stable U2OS reporter cells harboring Per2-dLuc; luminescence monitored over 4-5 days at 35° C. Format: cell-based. In a few lines:
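After 24 h culture, U2OS cells carrying Per2-dLuc were serum-shock synchronized into explant medium with 1.0 mM luciferin (10 mM HEPES pH 7.0) and compound in 0.5% DMSO. Luminescence was recorded over 4–5 days at 35 °C. Circadian period, amplitude and phase were derived, and EC50 calculated.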
Regarding `CS(=O)(=O)N(CC(O)Cn1c2ccccc2c2ccccc21)C1CC(F)C1` (centres unmarked) [Compound 147, N-(3-(9H-Carbazol-9-yl)-2-hydroxypropyl)-N-(3-fluorocyclobutyl)methanesulfonamide], the EC50 was determined as 980 nM.

Consider `CC(C)N(CC(C)(O)Cn1c2ccc(F)cc2c2cc(F)ccc21)S(C)(=O)=O` (centres unmarked) [Compound 150, N-(3-(3,6-Difluoro-9H-carbazol-9-yl)-2-hydroxy-2-methylpropyl)-N-isopropylmethanesulfonamide], for which it took 5050 nM to reach a half-maximal effect (EC50).

Compound `CS(=O)(=O)N(CC(O)Cn1c2ccc(F)cc2c2cc(F)ccc21)c1ccc(C2CCC2)cc1` (centres unmarked) [Compound 211, N-(4-Cyclobutylphenyl)-N-(3-(3,6-difluoro-9H-carbazol-9-yl)-2-hydroxypropyl)methanesulfonamide] gave an EC50 of 9240 nM.

`CS(=O)(=O)N(Cc1ccco1)CC(O)Cn1c2ccc(F)cc2c2c(F)cccc21` (centres unmarked) [Compound 109, N-(3-(3,5-Difluoro-9H-carbazol-9-yl)-2-hydroxypropyl)-N-(furan-2-ylmethyl)methanesulfonamide] displayed an EC50 of 7420 nM. This EC50 and that of the compound before are within 1.5-fold of each other.

`O=S(=O)(CCC(F)(F)F)N(Cc1ccco1)CC(O)Cn1c2ccccc2c2ccccc21` (centres unmarked) [Compound 6, N-(3-(9H-Carbazol-9-yl)-2-hydroxypropyl)-3,3,3-trifluoro-N-(furan-2-ylmethyl)propane-1-sulfonamide] came in with an EC50 of 964 nM.

`O=S1(=O)CCCCN1CC(O)Cn1c2cc(F)ccc2c2c(F)cccc21` (centres unmarked) [Compound 96, N-(3-(2,5-Difluoro-9H-carbazol-9-yl)-2-hydroxypropyl)-1,2-thiazinane 1,1-dioxide] showed an EC50 of 456 nM.

Turning to `CC1(N(CC(O)Cn2c3ccccc3c3ccccc32)S(C)(=O)=O)CCCC1` (centres unmarked) [Compound 143, N-(3-(9H-Carbazol-9-yl)-2-hydroxypropyl)-N-(1-methylcyclopentyl)methanesulfonamide], it took 28 nM to reach a half-maximal effect (EC50). Against the preceding compound, the EC50 is about 16-fold lower.

As for `CN(CC(O)Cn1c2cc(F)ccc2c2ccc(F)cc21)S(C)(=O)=O` (centres unmarked) [Compound 94, N-(3-(2,7-Difluoro-9H-carbazol-9-yl)-2-hydroxypropyl)-N-methylmethanesulfonamide], the concentration for a half-maximal effect (EC50) amounted to 3450 nM.

In the case of `COc1cccc(N(CC(O)Cn2c3ccccc3c3ccccc32)S(C)(=O)=O)c1` (centres unmarked) [Compound 73, N-(3-(9H-Carbazol-9-yl)-2-hydroxypropyl)-N-(3-methoxyphenyl)methanesulfonamide], a half-maximal effect (EC50) was put at 2990 nM. This EC50 and that of the compound before are within 1.5-fold of each other.

Turning to `Cc1ccc(S(=O)(=O)N(C)c2ccc(N(CC(O)Cn3c4ccccc4c4ccccc43)S(C)(=O)=O)cc2)cc1` (centres unmarked) [Compound 31, N-(4-(N-(3-(9H-Carbazol-9-yl)-2-hydroxypropyl)methylsulfonamido)phenyl)-N,4-dimethylbenzenesulfonamide], a half-maximal effect (EC50) was put at 1400 nM.

Take `CCN(CC(O)Cn1c2ccc(F)cc2c2ccc(F)cc21)S(C)(=O)=O` (centres unmarked) [Compound 164, N-(3-(2,6-Difluoro-9H-carbazol-9-yl)-2-hydroxypropyl)-N-ethylmethanesulfonamide]: the concentration giving a half-maximal response (EC50) is 200 nM. This EC50 is about 7-fold lower than that of the compound before.

`CC1CN(CC(C)(O)Cn2c3ccc(F)cc3c3cc(F)ccc32)S(=O)(=O)C1` (centres unmarked) [Compound 195, 2-(3-(3,6-Difluoro-9H-carbazol-9-yl)-2-hydroxy-2-methylpropyl)-4-methylisothiazolidine-1,1-dioxide] returned a concentration giving a half-maximal response (EC50) of 254 nM.

Turning to `COCCN(CC(O)Cn1c2cc(F)ccc2c2c(F)cccc21)S(C)(=O)=O` (centres unmarked) [Compound 99, N-(3-(2,5-Difluoro-9H-carbazol-9-yl)-2-hydroxypropyl)-N-(2-methoxyethyl)methanesulfonamide], the EC50 is 3550 nM. This EC50 lies about 14-fold higher than the previous one.

In turn, `CC1CCC(N(CC(O)Cn2c3ccccc3c3ccccc32)S(C)(=O)=O)CC1` (centres unmarked) [Compound 126, N-(3-(9H-Carbazol-9-yl)-2-hydroxypropyl)-N-(4-methylcyclohexyl)methanesulfonamide] displayed a concentration giving a half-maximal response (EC50) of 425 nM.

Compound `CC(C)N1CCN(CC(C)(O)Cn2c3ccc(F)cc3c3cc(F)ccc32)S1(=O)=O` (centres unmarked) [Compound 225] had a 50% effective concentration (EC50) of 3090 nM.

With `O=S1(=O)C(F)CCN1CC(O)Cn1c2ccc(F)cc2c2cc(F)ccc21` (centres unmarked) [Compound 183, 2-(3-(3,6-Difluoro-9H-carbazol-9-yl)-2-hydroxypropyl)-5-fluoroisothiazolidine-1,1-dioxide], a half-maximal response (EC50) required 53 nM.

The compound `CS(=O)(=O)N(Cc1ccco1)CC(O)Cn1c2ccc(F)cc2c2ccc(F)cc21` (centres unmarked) [Compound 102, N-(3-(2,6-Difluoro-9H-carbazol-9-yl)-2-hydroxypropyl)-N-(furan-2-ylmethyl)methanesulfonamide] registered a concentration giving a half-maximal response (EC50) of 3250 nM.

With `CC1(N(CC(O)Cn2c3ccccc3c3ccccc32)S(C)(=O)=O)COC1` (centres unmarked) [Compound 144, N-(3-(9H-Carbazol-9-yl)-2-hydroxypropyl)-N-(3-methyloxetan-3-yl)methanesulfonamide], the response was half-maximal at 2160 nM (EC50). This EC50 lies about 1.5-fold lower than the previous one.

Compound `O=S1(=O)CCCN1CC(O)Cn1c2ccc(F)cc2c2c(F)cccc21` (centres unmarked) [Compound 108, N-(3-(3,5-Difluoro-9H-carbazol-9-yl)-2-hydroxypropyl)-isothiazolidine-1,1-dioxide] registered an EC50 of 388 nM.

Consider `CS(=O)(=O)N(CC(O)Cn1c2cc(F)ccc2c2ccc(F)cc21)C1CCC1` (centres unmarked) [Compound 160, N-Cyclobutyl-N-(3-(2,7-difluoro-9H-carbazol-9-yl)-2-hydroxypropyl)methanesulfonamide], for which the midpoint of the response, the EC50, lay at 605 nM.

For the compound `CS(=O)(=O)N(CC(O)Cn1c2ccccc2c2ccccc21)C1CC1` (centres unmarked) [Compound 56, N-(3-(9H-Carbazol-9-yl)-2-hydroxypropyl)-N-cyclopropylmethanesulfonamide], it took 128 nM to reach a half-maximal effect (EC50).

For `O=S(=O)(CC(F)(F)F)N(Cc1ccco1)CC(O)Cn1c2ccccc2c2ccccc21` (centres unmarked) [Compound 7, N-(3-(9H-Carbazol-9-yl)-2-hydroxypropyl)-2,2,2-trifluoro-N-(furan-2-ylmethyl)ethanesulfonamide], the concentration for a half-maximal effect (EC50) came to 2100 nM. This EC50 lies about 16-fold higher than the previous one.

For the compound `CS(=O)(=O)N(CC(O)Cn1c2ccccc2c2ccccc21)c1ccc2[nH]ccc2c1` (centres unmarked) [Compound 76, N-(3-(9H-Carbazol-9-yl)-2-hydroxypropyl)-N-(1H-indol-5-yl)methanesulfonamide], a half-maximal response (EC50) required 2180 nM.

Turning to `CC(C)N1CCCN(CC(C)(O)Cn2c3ccc(F)cc3c3cc(F)ccc32)S1(=O)=O` (centres unmarked) [Compound 218, 2-(3-(3,6-Difluoro-9H-carbazol-9-yl)-2-hydroxy-2-methylpropyl)-6-isopropyl-1,2,6-thiadiazinane-1,1-dioxide], the EC50 was found to be 9780 nM.

On to `CC1(C)CCC(N(CC(O)Cn2c3ccccc3c3ccccc32)S(C)(=O)=O)CC1` (centres unmarked) [Compound 141, N-(3-(9H-Carbazol-9-yl)-2-hydroxypropyl)-N-(4,4-dimethylcyclohexyl)methanesulfonamide], for which the EC50 was 846 nM.

The compound `O=S1(=O)CCCN1C[C@H](O)Cn1c2ccccc2c2ccccc21` [Compound 40, (R)-N-(3-(9H-Carbazol-9-yl)-2-hydroxypropyl)isothiazolidine 1,1-dioxide] returned an EC50 of 179 nM.

Regarding `CC1CC(N(CC(O)Cn2c3ccccc3c3ccccc32)S(C)(=O)=O)C1` (centres unmarked) [Compound 131, N-(3-(9H-Carbazol-9-yl)-2-hydroxypropyl)-N-(3-methylcyclobutyl)methanesulfonamide], a half-maximal effect (EC50) was put at 79 nM.

`CS(=O)(=O)N(Cc1ccccc1F)CC(O)Cn1c2ccccc2c2ccccc21` (centres unmarked) [Compound 68, N-(3-(9H-Carbazol-9-yl)-2-hydroxypropyl)-N-(2-fluorobenzyl)methanesulfonamide] displayed a half-maximal effective concentration (EC50) of 1990 nM. This EC50 is about 25-fold higher than that of the compound before.

The compound `CC(C)Oc1ccc(N(CC(O)Cn2c3ccc(F)cc3c3cc(F)ccc32)S(C)(=O)=O)cc1` (centres unmarked) [Compound 210, N-(3-(3,6-Difluoro-9H-carbazol-9-yl)-2-hydroxypropyl)-N-(4-isopropoxyphenyl)methanesulfonamide] registered a 50% effective concentration (EC50) of 7210 nM.

On to `CS(=O)(=O)N(CC(O)Cn1c2ccccc2c2ccccc21)CC1CCCO1` (centres unmarked) [Compound 51, N-(3-(9H-Carbazol-9-yl)-2-hydroxypropyl)-N-((tetrahydrofuran-2-yl)methyl)methanesulfonamide], for which the EC50 was 371 nM.

`O=S1(=O)NCCN1CC(O)Cn1c2ccc(F)cc2c2cc(F)ccc21` (centres unmarked) [Compound 175]: the EC50 was 35 nM.

As for `CC(O)(CN1CCCS1(=O)=O)Cn1c2ccc(F)cc2c2cc(F)ccc21` (centres unmarked) [Compound 115, 2-(3-(3,6-Difluoro-9H-carbazol-9-yl)-2-hydroxy-2-methylpropyl)-isothiazolidine-1,1-dioxide], the EC50 came to 232 nM.

In the case of `CN1CCCN(CC(O)Cn2c3ccccc3c3ccccc32)S1(=O)=O` (centres unmarked) [Compound 124, 2-(3-(9H-Carbazol-9-yl)-2-hydroxypropyl)-6-methyl-1,2,6-thiadiazinane-1,1-dioxide], the midpoint of the response, the EC50, lay at 154 nM.

As for `O=S1(=O)N(CC(O)Cn2c3ccc(F)cc3c3cc(F)ccc32)CCCN1C1CCCC1` (centres unmarked) [Compound 220, 2-(3-(3,6-Difluoro-9H-carbazol-9-yl)-2-hydroxypropyl)-6-cyclopentyl-1,2,6-thiadiazinane-1,1-dioxide], the EC50 is 1660 nM.

In turn, `CS(=O)(=O)N1CCCCC1C(O)Cn1c2ccccc2c2ccccc21` (centres unmarked) [Compound 242, 2-(9H-Carbazol-9-yl)-1-(1-(methylsulfonyl)-piperidin-2-yl)ethanol] registered a 50% effective concentration (EC50) of 494 nM. Against the preceding compound, the EC50 is about 3.4-fold lower.

For the compound `CS(=O)(=O)N(CC(O)Cn1c2ccc(F)cc2c2cc(F)ccc21)c1ccc(C2CC2)cc1` (centres unmarked) [Compound 207, N-(4-Cyclopropylphenyl)-N-(3-(3,6-difluoro-9H-carbazol-9-yl)-2-hydroxypropyl)methanesulfonamide], the midpoint of the response, the EC50, lay at 2950 nM.

`CS(=O)(=O)N(CC(O)Cn1c2ccccc2c2ccccc21)CC1CCCC1` (centres unmarked) [Compound 50, N-(3-(9H-Carbazol-9-yl)-2-hydroxypropyl)-N-(cyclopentylmethyl)methanesulfonamide] displayed a half-maximal effective concentration (EC50) of 148 nM.

Regarding `CS(=O)(=O)N(CC(O)Cn1c2ccccc2c2ccccc21)c1cccc(C#N)c1` (centres unmarked) [Compound 72, N-(3-(9H-Carbazol-9-yl)-2-hydroxypropyl)-N-(3-cyanophenyl)methanesulfonamide], the 50% effective concentration (EC50) was found to be 2580 nM. Compared with the last compound, the EC50 is about 17-fold higher.
